From US11178873B2, “Cyclic N-carboxamide compounds useful as herbicides” (FMC CORPORATION, priority 2015, dated 2021)

Key:
Assay type in all cases: in vivo
Details in all cases: 1000 g ai/ha, 0 to 100 scale, 0 no effect, 100 complete control
[1] = test system: foxtail, giant (giant foxtail, Setaria faberii); test: Test A postemergence, foxtail, giant
Excerpt: (§1) Seeds of plant species selected from barnyardgrass (Echinochloa crus-galli), crabgrass, large (large crabgrass, Digitaria sanguinalis), kochia (Kochia scoparia), ragweed (common ragweed, Ambrosia elatior), morningglory (Ipomoea spp.), velvetleaf (Abutilon theophrasti), ryegrass, Italian (Italian ryegrass, Lolium multiflorum), foxtail, giant (giant foxtail, Setaria faberii), wheat (Triticum aestivum), corn (Zea mays), and pigweed (Amaranthus retroflexus), were planted into a blend of loam soil and sand and treated preemergence with a directed soil spray using test chemicals formulated in a non-phytotoxic solvent mixture which included a surfactant. At the same time, plants selected from these crop and weed species and also blackgrass (Alopecurus myosuroides), and galium (catchweed bedstraw, Galium aparine), were planted in pots containing the same blend of loam soil and sand and treated with postemergence applications of test chemicals formulated in the same manner. Plants ranged in height from 2 to 10 cm and were in the one- to two-leaf stage for the postemergence treatment. Treated plants and untreated controls were maintained in a greenhouse for approximately 10 d, after which time all treated plants were compared to untreated controls and visually evaluated for injury. Plant response ratings, summarized in Table A, are based on a 0 to 100 scale where 0 is no effect and 100 is complete control. A dash (-) response means no test result.

[2] = test system: wheat (Triticum aestivum); test: Test A postemergence, wheat
Excerpt: as §1

[3] = test system: ragweed (common ragweed, Ambrosia elatior); test: Test A preemergence, ragweed
Excerpt: as §1

[4] = test system: ryegrass, Italian (Italian ryegrass, Lolium multiflorum); test: Test A postemergence, ryegrass, Italian
Excerpt: as §1

[5] = test system: galium (catchweed bedstraw, Galium aparine); test: Test A postemergence, galium
Excerpt: as §1

[6] = test system: ragweed (common ragweed, Ambrosia elatior); test: Test A postemergence, ragweed
Excerpt: as §1

[7] = test system: pigweed (Amaranthus retroflexus); test: Test A preemergence, pigweed
Excerpt: as §1

[8] = test system: blackgrass (Alopecurus myosuroides); test: Test A postemergence, blackgrass
Excerpt: as §1

kochia (Kochia scoparia) [9] = test: Test A preemergence, kochia
Excerpt: as §1

[10] = test system: ryegrass, Italian (Italian ryegrass, Lolium multiflorum); test: Test A preemergence, ryegrass, Italian
Excerpt: as §1

[11] = test system: barnyardgrass (Echinochloa crus-galli); test: Test A postemergence, barnyardgrass
Excerpt: as §1

[12] = test system: pigweed (Amaranthus retroflexus); test: Test A postemergence, pigweed
Excerpt: as §1

[13] = test system: barnyardgrass (Echinochloa crus-galli); test: Test A preemergence, barnyardgrass
Excerpt: as §1

kochia (Kochia scoparia) [14] = test: Test A postemergence, kochia
Excerpt: as §1

[15] = test system: foxtail, giant (giant foxtail, Setaria faberii); test: Test A preemergence, foxtail, giant
Excerpt: as §1

corn (Zea mays) = test: Test A postemergence, corn
Excerpt: as §1

`Cc1ccc(C2CCC(=O)N2C(=O)Nc2ccccc2C(F)(F)F)cc1` (stereo not shown) [Compound 20] was tested. Which “Plant response rating, Foxtail, Giant” value [1] did it give?
Its value is 0.

And the “Plant response rating, Wheat” value [2]?
Its value is 0.

What about the “Plant response rating, Ragweed” value [3] of the same molecule?
Its value is 0.

What about the “Plant response rating, Ryegrass, Italian” value [4] of the same molecule?
The value was 0.

What about the “Plant response rating, Galium” value [5] of the same molecule?
The value was 0.

What about the “Plant response rating, Ragweed” value [6] of the same molecule?
The value was 0.

And the “Plant response rating, Pigweed” value [7]?
The value was 0.

What about the “Plant response rating, Blackgrass” value [8] of the same molecule?
The value was 0.

What about the “Plant response rating, Kochia” value (kochia (Kochia scoparia) [9]) of the same molecule?
The value was 0.

And the “Plant response rating, Ryegrass, Italian” value [10]?
The value was 0.

What about the “Plant response rating, Barnyardgrass” value [11] of the same molecule?
Its value is 0.

And the “Plant response rating, Pigweed” value [12]?
Its value is 0.

What about the “Plant response rating, Barnyardgrass” value [13] of the same molecule?
The value was 0.

And the “Plant response rating, Kochia” value (kochia (Kochia scoparia) [14])?
Its value is 0.

And the “Plant response rating, Foxtail, Giant” value [15]?
Its value is 20.

What about the “Plant response rating, Corn” value (corn (Zea mays)) of the same molecule?
The value was 0.

Which results are given for `Cc1ccc(C2CCC(=O)N2C(=O)Nc2ccc(F)c(F)c2F)cc1` (stereo not shown) [Compound 21]?
Plant response rating, Foxtail, Giant [1]: 0; Plant response rating, Wheat [2]: 0; Plant response rating, Ragweed [3]: 0; Plant response rating, Ryegrass, Italian [4]: 0; Plant response rating, Galium [5]: 0; Plant response rating, Ragweed [6]: 0; Plant response rating, Pigweed [7]: 0; Plant response rating, Blackgrass [8]: 0; Plant response rating, Kochia (kochia (Kochia scoparia) [9]): 0; Plant response rating, Ryegrass, Italian [10]: 0; Plant response rating, Barnyardgrass [11]: 0; Plant response rating, Pigweed [12]: 0; Plant response rating, Barnyardgrass [13]: 20; Plant response rating, Kochia (kochia (Kochia scoparia) [14]): 0; Plant response rating, Foxtail, Giant [15]: 70; Plant response rating, Corn (corn (Zea mays)): 0

Which results are given for `Cc1ccc(C2CCC(=O)N2C(=O)Nc2ccccc2F)cc1` (stereo not shown) [Compound 19]?
Plant response rating, Foxtail, Giant [1]: 0; Plant response rating, Wheat [2]: 0; Plant response rating, Ragweed [3]: 0; Plant response rating, Ryegrass, Italian [4]: 0; Plant response rating, Galium [5]: 0; Plant response rating, Ragweed [6]: 0; Plant response rating, Pigweed [7]: 70; Plant response rating, Blackgrass [8]: 0; Plant response rating, Kochia (kochia (Kochia scoparia) [9]): 20; Plant response rating, Ryegrass, Italian [10]: 0; Plant response rating, Barnyardgrass [11]: 0; Plant response rating, Pigweed [12]: 0; Plant response rating, Barnyardgrass [13]: 40; Plant response rating, Kochia (kochia (Kochia scoparia) [14]): 0; Plant response rating, Foxtail, Giant [15]: 40; Plant response rating, Corn (corn (Zea mays)): 0

Which results are given for `CN1CC(c2ccc(C(F)(F)F)cc2)N(C(=O)Nc2cccc(F)c2F)C1=O` (stereo not shown) [Compound 14]?
Plant response rating, Foxtail, Giant [1]: 0; Plant response rating, Wheat [2]: 0; Plant response rating, Ragweed [3]: 0; Plant response rating, Ryegrass, Italian [4]: 0; Plant response rating, Galium [5]: 0; Plant response rating, Ragweed [6]: 0; Plant response rating, Pigweed [7]: 0; Plant response rating, Blackgrass [8]: 0; Plant response rating, Kochia (kochia (Kochia scoparia) [9]): 0; Plant response rating, Ryegrass, Italian [10]: 0; Plant response rating, Barnyardgrass [11]: 0; Plant response rating, Pigweed [12]: 0; Plant response rating, Barnyardgrass [13]: 20; Plant response rating, Kochia (kochia (Kochia scoparia) [14]): 0; Plant response rating, Foxtail, Giant [15]: 70; Plant response rating, Corn (corn (Zea mays)): 0
